# Assay results reported in patent US7465719B2, “Carbamic acid compounds comprising an ester or ketone linkage as HDAC inhibitors” (Topotarget UK Limited, priority 2003, dated 2008).
# Read-outs that look alike come from different tables or passages of the source.
# Assays:
# HDAC (HeLa cell extract) = test: Primary assay: deacetylase activity, HeLa cell extract as source of HDAC; format: biochemical, human; details: read-out: HDAC Inhibition (IC50 unless otherwise specified) HeLa
# Description: Decreased activity indicates increased inhibition by the test compound.
# Alternatively, the activity of the compounds as HDAC inhibitors was determined using a commercially available fluorescent assay kit: (Fluor de Lys™, BioMol Research Labs, Inc., Plymouth Meeting, USA).
# Extensive comparative studies have shown that Primary Assay (1) and Primary Assay (2), discussed above, yield equivalent results. Primary Assay results reported herein are (a) exclusively from (1); (b) exclusively from (2); or (c) from both (1) and (2).
# The HeLa cell extract was made from HeLa cells (ATCC Ref. No. CCL-2) by freeze-thawing three times in 60 mM Tris Cl pH 8.0, 450 mM NaCl, 30% glycerol. Two cell volumes of extraction buffer were used, and particulate material was centrifuged out (20800 g, 4° C., 10 minutes). The supernatant extract having deacetylase activity was aliquotted and frozen for storage.
# HeLa cells = test: Secondary assay: cell proliferation WST-1, HeLa; format: cell-based; details: Homo sapiens, read-out: Cell Proliferation Inhibition WST-1 (IC50 unless otherwise specified) HeLa
# Excerpt: Compounds with HDAC inhibition activity, as determined using the primary assay, were subsequently evaluated using secondary cell-based assays. The following cell lines were used: • HeLa—Human cervical adenocarcinoma cell line (ATCC ref. No. CCL-2). • K11—HPV E7 transformed human keratinocyte line provided by Pidder Jansen-Duerr, Institut für Biomedizinische Alternsforschung, Innsbruck, Austria. • NHEK-Ad—Primary human adult keratinocyte line (Cambrex Corp., East Rutherford, N.J., USA). • JURKAT—Human T-cell line (ATCC no. TIB-152). Assay Method
# Cells were cultured, exposed to candidate compounds, and incubated for a time, and the number of viable cells was then assessed using the Cell Proliferation Reagent WST-1 from Boehringer Mannheim (Cat. No. […]), described below.
# (§1) Cells were plated in 96-well plates at 3-10×10^3 cells/well in 100 μL of culture medium. The following day, different concentrations of candidate compounds were added and the cells incubated at 37° C. for 48 hours. Subsequently, 10 μL/well of WST-1 reagent was added and the cells reincubated for 1 hour. After the incubation time, absorbance was measured.
# (§2) WST-1 is a tetrazolium salt which is cleaved to formazan dye by cellular enzymes. An expansion in the number of viable cells results in an increase in the overall activity of mitochondrial dehydrogenases in the sample. This augmentation in the enzyme activity leads to an increase in the amount of formazan dye formed, which directly correlates to the number of metabolically active cells in the culture. The formazan dye produced is quantified by a scanning multiwell spectrophotometer by measuring the absorbance of the dye solution at 450 nm wavelength (reference wavelength 690 nm).
# (§3) IC50 values were calculated using the software package Prism 3.0 (GraphPad Software Inc., San Diego, Calif.), setting top value at 100 and bottom value at 0.
# [1] = tested on: K11 (HPV E7 transformed human keratinocyte line); test: Secondary assay: cell proliferation WST-1, K11; format: cell-based; details: read-out: Cell Proliferation Inhibition WST-1 (IC50 unless otherwise specified) K11
# Description: (§4) Compounds with HDAC inhibition activity, as determined using the primary assay, were subsequently evaluated using secondary cell-based assays. […] Assay Method
# as §1, §2, §3
# [2] = tested on: JURKAT (human T-cell line); test: Secondary assay: cell proliferation WST-1, Jurkat; format: cell-based; details: Jurkat cells, 48 hours, read-out: Cell Proliferation Inhibition WST-1 (IC50 unless otherwise specified) Jurkat
# Description: as §4, §1, §2
# Percent activity (% activity) in reducing the number of viable cells was calculated for each test compound as: % activity={(S^C−B)/(S^o−B)}×100 wherein S^C denotes signal measured in the presence of the compound being tested, S^o denotes signal measured in the absence of the compound being tested, and B denotes the background signal measured in blank wells containing medium only. […] IC50 values were calculated using the software package Prism 3.0 (GraphPad Software Inc., San Diego, Calif.), setting top value at 100 and bottom value at 0.
# [3] = tested on: NHEK-Ad (primary human adult keratinocyte line); test: Secondary assay: cell proliferation WST-1, NHEK-Ad; format: cell-based; details: read-out: Cell Proliferation Inhibition WST-1 (IC50 unless otherwise specified) NHEK-AD
# Description: as §4, §1, §2, §3
# [4] = Homo sapiens, Keratinocyte, K11 cells, 48 hours
# [5] = Homo sapiens, Keratinocyte, 48 h
compound,measurement,setting,value
"O=C(NO)c1ccc(OC(=O)C2(c3ccc(O)cc3)CCCCC2)cc1 [PX119103, 4-[(Hydroxyamino)carbonyl]phenyl 1-(4-hydroxyphenyl) -cyclohexanecarboxylate]",melting point,,93 to 94 °C
"O=C(NO)c1ccc(OC(=O)C2(c3ccc(F)cc3Cl)CCCCC2)cc1 [PX119064, 4-[(Hydroxyamino)carbonyl]phenyl 1-(2-chloro-4-fluorophenyl) -cyclohexanecarboxylate]",melting point,,164 to 165 °C
"O=C(NO)c1ccc(OC(=O)C2(c3ccccc3F)CCCCC2)cc1 [PX119062, 4-[(Hydroxyamino)carbonyl]phenyl 1-(2-fluorophenyl) -cyclohexanecarboxylate]",melting point,,125 to 126 °C
"CC(=O)Oc1ccc(C2(C(=O)Oc3ccc(C(=O)NO)cc3)CCCCC2)cc1 [PX118959, 4-[(Hydroxyamino)carbonyl]phenyl 1-[4-(acetyloxy)phenyl]-cyclohexanecarboxylate]",melting point,,69 °C
"CC(C)(C)OC(=O)c1ccc(C2(C(=O)Oc3ccc(C(=O)NO)cc3)CCCCC2)cc1 [PX118926, tert-Butyl 4-[1-({4-[(hydroxyamino)carbonyl]phenoxy}-carbonyl)cyclohexyl]benzoate]",melting point,,143 to 147 °C (dec.)
"Cc1ccc(C2(C(=O)Oc3ccc(C(=O)NO)cc3)CCCCC2)cc1 [PX118966, 4-[(Hydroxyamino)carbonyl]phenyl 1-(4-methylphenyl) -cyclohexanecarboxylate]",melting point,,59 to 60 °C
"COC(=O)c1ccc(C2(C(=O)Oc3ccc(C(=O)NO)cc3)CCCCC2)cc1 [PX118480, Methyl 4-[1-({4-[(hydroxyamino)carbonyl]phenoxy}carbonyl) -cyclohexyl]benzoate]",IC50,HDAC (HeLa cell extract),25 nM
same,IC50,"HeLa cells; HeLa cells, 48 hours",7900 nM
same,IC50,[1]; [4],1650 nM
same,IC50,[2]; Homo sapiens,780 nM
same,melting point,,129 to 131 °C
"CCOc1ccc(C2(C(=O)Oc3ccc(C(=O)NO)cc3)CCCCC2)cc1 [PX118925, 4-[(Hydroxyamino)carbonyl]phenyl 1-(4-ethoxyphenyl) -cyclohexanecarboxylate]",melting point,,140 to 143 °C
"COc1ccc(C2(C(=O)Oc3ccc(C(=O)NO)cc3)CCCCC2)cc1 [PX118478, 4-[(Hydroxyamino)carbonyl]phenyl 1-(4-methoxyphenyl)-cyclohexanecarboxylate]",IC50,HDAC (HeLa cell extract),23 nM
same,IC50,"HeLa cells; HeLa cells, 48 hours",4600 nM
same,IC50,[1]; [4],13600 nM
same,IC50,[2]; Homo sapiens,500 nM
same,melting point,,127 to 129 °C
"Nc1ccccc1NC(=O)c1ccc(CNC(=O)OCc2cccnc2)cc1 [MS-275, reference compound]",IC50,"[1]; K11 cells, 48 hours",9160 nM
same,IC50,"[3]; NHEK-AD cells, 48 hours",3100 nM
same,IC50,[2],365 nM
"O=C(O)c1ccc(C2(C(=O)Oc3ccc(C(=O)NO)cc3)CCCCC2)cc1 [PX119102, 4-[1-({4-[(Hydroxyamino)carbonyl]phenoxy}carbonyl)cyclohexyl]-benzoic acid]",melting point,,169 to 170 °C
oxamflatin [reference compound],IC50,[2],170 nM
"CC(/C=C/C(=O)NO)=C\[C@@H](C)C(=O)c1ccc(N(C)C)cc1 [TSA, Trichostatin A, reference compound]",IC50,"HeLa cells; HeLa, 48 h",350 nM
same,IC50,[1]; [5],380 nM
same,IC50,[3]; [5],200 nM
same,IC50,[2]; Homo sapiens,42 nM
"CC(C)(C)C(=O)Oc1ccc(C2(C(=O)Oc3ccc(C(=O)NO)cc3)CCCCC2)cc1 [PX119086, 4-[(Hydroxyamino)carbonyl]phenyl 1-{4-[(2,2-dimethylpropanoyl)oxy]-phenyl}-cyclohexane-carboxylate]",melting point,,124 to 125 °C
"O=C(NO)c1ccc(OC(=O)C2(c3ccccc3)CCCCC2)cc1 [PX118479, 4-[(Hydroxyamino)carbonyl]phenyl 1-phenylcyclohexanecarboxylate]",IC50,HDAC (HeLa cell extract),52 nM
same,IC50,"HeLa cells; HeLa cells, 48 hours",13700 nM
same,IC50,[1]; [4],21300 nM
same,IC50,[2]; Homo sapiens,1250 nM
same,melting point,,142 to 144 °C
"O=C(NO)c1ccc(OC(=O)C2(c3ccc(F)cc3)CCCCC2)cc1 [PX119065, 4-[(Hydroxyamino)carbonyl]phenyl 1-(4-fluorophenyl) -cyclohexanecarboxylate]",melting point,,150 to 151 °C
"O=C(NO)c1ccc(OC(=O)C2(c3ccc(OC(=O)c4ccccc4)cc3)CCCCC2)cc1 [PX119085, 4-[1-({4-[(Hydroxyamino)carbonyl]phenoxy}carbonyl)cyclohexyl]-phenyl benzoate]",melting point,,114 to 115 °C
"COc1ccc(C2(C(=O)Oc3ccc(C(=O)NO)cc3)CCCC2)cc1 [PX119063, 4-[(Hydroxyamino)carbonyl]phenyl 1-(4-methoxyphenyl) -cyclopentanecarboxylate]",IC50,HDAC (HeLa cell extract),85 nM
same,IC50,"HeLa cells; HeLa cells, 48 hours",4900 nM
same,melting point,,143 to 144 °C
"O=C(NO)c1ccc(OC(=O)C2(c3c(F)cccc3Cl)CCCCC2)cc1 [PX119101, 4-[(Hydroxyamino)carbonyl]phenyl 1-(2-chloro-6-fluorophenyl) -cyclohexanecarboxylate]",melting point,,101 to 102 °C
"O=C(NO)c1ccc(OC(=O)C2(c3cccc(F)c3)CCCCC2)cc1 [PX119061, 4-[(Hydroxyamino)carbonyl]phenyl 1-(3-fluorophenyl) -cyclohexanecarboxylate]",melting point,,150 to 151 °C
"O=C(NO)c1ccc(OC(=O)C2(c3ccc(Cl)cc3)CCCCC2)cc1 [PX119059, 4-[(Hydroxyamino)carbonyl]phenyl 1-(4-chlorophenyl) -cyclohexanecarboxylate]",melting point,,145 to 146 °C
